The assay has as its system S. epidermidis, C. xerosis, M. furfur, P. Acnes. The assay can be described thus: Antimicrobial efficacy, challenge test, overall conclusion on the strains of table 1. Format: cell-based. Particulars: conclusion from table 1; almost comparable to Phenonip. The protocol: The antimicrobial efficacy of propanediol monoacetate mononitrate (PDMAMN) is assessed in analogy to the regulatory challenge test method (NF EN ISO11930). The following test solutions were tested • 1. Inv 1: 400 mg PDMAMN in 1 ml PEG 400 were diluted with 40 mL physiological serum (0.85% NaCl) containing 7% Ethanol (˜1% of PDMAMN) • 2. Inv 2: 200 mg PDMAMN in 1 ml PEG 400 were diluted in 40 mL physiological serum (0.85% NaCl) containing 7% Ethanol (˜0.5% of PDMAMN) • 3. Inv 3: 40 mg 3-PDMAMN in 1 ml PEG 400 were diluted in 40 mL physiological serum (0.85% NaCl) containing 7% Ethanol (˜0.1% of PDMAMN) • 4. Ref 1: Physiological serum (0.85% NaCl) • 5. Ref 2: 1 mL PEG 400+40 mL physiological serum (0.85% NaCl) containing 7% Ethanol • 6. Control: 0.5% Phenonip in physiological serum (0.85% NaCl)
All test solutions were deposed in 96-deep well plates (1.6 ml/well). The wells were contaminated with the respective bacterial or the fungal strains as outlined in table 1*10^5 to 1*10^6 cfu/ml for the bacteria and 1*10^4 to 1*10^5 cfu/ml for the fungi to obtain the initial contamination as outlined in table 1, Zero. After the contamination, each well was thoroughly mixed to ensure a homogeneous distribution of the microorganism. Then each plate was incubated at 22° C. for 24 h. The counting of the (remaining) population was carried out 24 h after contamination.

In the case of `CC(=O)OCCCO[N+](=O)[O-]` [propanediol monoacetate mononitrate, 1,3-propanediol monoacetate mononitrate], the antimicrobial activity entry was “excellent antimicrobial activity”.

For the origin of these results see patent US11306054B2, “Propanediol monoacetate mononitrate” (DSM IP ASSETS B.V., priority 2017, dated 2022).
